Laboratory results reported in ChEMBL document CHEMBL5537148, “Discovery of (quinazolin-6-yl)benzamide derivatives containing a 6,7-dimethoxy-1,2,3,4-tetrahydroisoquinoline moiety as potent reversal agents against P-glycoprotein-mediated multidrug resistance” (Eur J Med Chem, 2024).
The source made the active and inactive calls. No cut-off for these calls is given here.

Assays:
[1] = Reversal fold, ratio of adriamycin IC50 to adriamycin IC50 in presence of 0.1 uM test compound for reversal of adriamycin-mediated resistance in human MCF7/ADM cells by MTT method; format: functional
[2] = target: ATP-dependent translocase ABCB1 (Homo sapiens, UniProt P08183); assay: Inhibition of P-gp-mediated rhodamine-123 efflux in human MCF7/ADM cells assessed as increase in fluorescence intensity at 0.1 uM incubated for 6 hrs followed by Rh123 addition for 3 hrs by Fluorescence microplate reader analysis; format: cell-based; conditions: 9 h
MCF7/ADM [3] = assay: Effect on P-gp expression in human MCF7/ADM cells at 0.1 uM by Western blot analysis; format: functional, cell-based
MCF7/ADM [4] = assay: Induction of apoptosis in human MCF7/ADM cells incubated for 48 hrs in presence of adriamycin by Annexin V-FITC/PI staining based flow cytometric analysis; format: functional, cell-based; conditions: dose 0.1-1 µM
MCF7/ADM [5] = assay: Inhibition of colony formation in human MCF7/ADM cells at 0.1 uM incubated for 15 days with fresh media replacement for every 2 days in the presence of adriamycin by crystal violet staining based imaging analysis; format: functional, cell-based; conditions: time 15.0 day
MCF7/ADM [6] = assay: Inhibition of cell migration in human MCF7/ADM cells at 0.1 uM incubated for 24 to 48 hrs in the presence of adriamycin by Wound healing assay; format: functional, cell-based; conditions: time 24-48 hrs
MCF7/ADM [7] = assay: Inhibition of cell invasion in human MCF7/ADM cells at 0.1 uM incubated for 24 hrs in the presence of adriamycin by Transwell assay; format: functional, cell-based
MCF7/ADM [8] = assay: Antitumor activity against human MCF7/ADM cells xenografted in BABL/c mouse assessed as decrease in tumor volume at 2 mg/kg, ip administered once every 3 days for 25 days in the presence of adriamycin; format: functional, organism-based; conditions: time 25.0 day
MCF7/ADM [9] = assay: Antitumor activity against human MCF7/ADM cells xenografted in BABL/c mouse assessed as decrease in tumor weight at 2 mg/kg, ip administered once every 3 days for 25 days in the presence of adriamycin; format: functional, organism-based; conditions: time 25.0 day
[10] = Antitumor activity against human MCF7/ADM cells xenografted in BABL/c mouse assessed as tumor growth inhibition at 2 mg/kg, ip administered once every 3 days for 25 days in the presence of adriamycin relative to control; format: functional; conditions: 600 h, time 25 day, read-out: TGI
MCF7/ADM [11] = assay: Antitumor activity against human MCF7/ADM cells xenografted in BABL/c mouse assessed as increase in tumor degeneration at 2 mg/kg, ip administered once every 3 days for 25 days in the presence of adriamycin by H&E staining based analysis; format: functional, organism-based; conditions: time 25.0 day
MCF7/ADM [12] = assay: Antitumor activity against human MCF7/ADM cells xenografted BABL/c mouse model assessed as increase in tumor necrosis at 2 mg/kg, ip administered once every 3 days for 25 days in the presence of adriamycin by H&E staining based analysis; format: functional, organism-based; conditions: time 25.0 day
[13] = Toxicity in Balb/c mouse xenografted with human MCF7/ADR cells assessed as liver cell necrosis at 2 mg/kg, ip administered once every 3 days for 25 days in presence of adriamycin by H&E staining based analysis; format: organism-based, NCI/ADR-RES; conditions: in vivo, 600 h, time 25 day
[14] = Toxicity in Balb/c mouse xenografted with human MCF7/ADR cells assessed as kidney cell necrosis at 2 mg/kg, ip administered once every 3 days for 25 days in presence of adriamycin by H&E staining based analysis; format: organism-based, NCI/ADR-RES; conditions: in vivo, 600 h, time 25 day
[15] = Toxicity in Balb/c mouse xenografted with human MCF7/ADR cells assessed as liver cell necrosis at 10 mg/kg, ip administered once every 3 days for 25 days by H&E staining based analysis; format: organism-based, NCI/ADR-RES; conditions: in vivo, 600 h, time 25 day
[16] = Toxicity in Balb/c mouse xenografted with human MCF7/ADR cells assessed as kidney cell necrosis at 10 mg/kg, ip administered once every 3 days for 25 days by H&E staining based analysis; format: organism-based, NCI/ADR-RES; conditions: in vivo, 600 h, time 25 day

Chain of ATP-dependent translocase ABCB1 (P08183 whole entry): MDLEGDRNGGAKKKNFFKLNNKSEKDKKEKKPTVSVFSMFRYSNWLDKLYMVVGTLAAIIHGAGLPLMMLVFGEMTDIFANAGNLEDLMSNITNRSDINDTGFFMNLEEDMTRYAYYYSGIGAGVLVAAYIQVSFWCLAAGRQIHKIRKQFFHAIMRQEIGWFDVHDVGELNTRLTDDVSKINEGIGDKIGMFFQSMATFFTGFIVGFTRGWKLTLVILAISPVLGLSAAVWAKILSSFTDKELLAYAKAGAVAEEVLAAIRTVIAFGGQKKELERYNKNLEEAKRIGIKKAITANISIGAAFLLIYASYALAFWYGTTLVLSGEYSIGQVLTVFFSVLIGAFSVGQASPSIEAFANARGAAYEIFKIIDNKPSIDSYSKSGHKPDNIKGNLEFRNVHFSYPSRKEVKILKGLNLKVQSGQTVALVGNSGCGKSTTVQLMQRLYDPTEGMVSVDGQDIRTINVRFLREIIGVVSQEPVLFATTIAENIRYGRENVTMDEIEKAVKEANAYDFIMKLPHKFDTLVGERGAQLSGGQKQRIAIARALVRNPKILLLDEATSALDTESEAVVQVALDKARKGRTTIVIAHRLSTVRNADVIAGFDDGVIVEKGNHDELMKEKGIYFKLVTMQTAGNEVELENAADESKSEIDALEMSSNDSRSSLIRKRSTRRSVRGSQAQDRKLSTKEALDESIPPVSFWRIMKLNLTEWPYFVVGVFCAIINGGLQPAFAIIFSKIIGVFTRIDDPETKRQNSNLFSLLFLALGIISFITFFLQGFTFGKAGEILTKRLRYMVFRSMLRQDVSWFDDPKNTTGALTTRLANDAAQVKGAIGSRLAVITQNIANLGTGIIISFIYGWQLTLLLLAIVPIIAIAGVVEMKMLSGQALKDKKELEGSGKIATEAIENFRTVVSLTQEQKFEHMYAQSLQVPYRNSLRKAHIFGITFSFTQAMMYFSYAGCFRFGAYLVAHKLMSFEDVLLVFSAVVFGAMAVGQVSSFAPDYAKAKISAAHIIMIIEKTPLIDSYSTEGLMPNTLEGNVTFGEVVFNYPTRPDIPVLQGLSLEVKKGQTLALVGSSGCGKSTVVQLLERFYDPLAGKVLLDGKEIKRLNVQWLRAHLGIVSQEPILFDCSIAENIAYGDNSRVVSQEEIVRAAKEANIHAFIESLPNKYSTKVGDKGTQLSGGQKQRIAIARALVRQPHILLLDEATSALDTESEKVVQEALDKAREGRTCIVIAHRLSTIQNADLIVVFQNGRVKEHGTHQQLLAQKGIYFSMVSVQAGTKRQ

SMILES | Ratio IC50 [1] | further results
COc1cc2c(cc1OC)CN(CCNC(=O)c1ccc(-c3ccc4ncnc(Nc5ccccc5Cl)c4c3)cc1)CC2 | 13.3 | 
COc1cc2c(cc1OC)CN(CCNC(=O)c1ccc(-c3ccc4ncnc(Nc5ccc(Cl)cc5)c4c3)cc1)CC2 | 4.3 | 
COc1cc2c(cc1OC)CN(CCNC(=O)c1ccc(-c3ccc4ncnc(NCc5ccc(F)cc5)c4c3)cc1)CC2 | 12.1 | 
COc1cc2c(cc1OC)CN(CCNC(=O)c1ccc(-c3ccc4ncnc(Nc5ccccc5)c4c3)cc1)CC2 | 3.5 | 
COc1cc2c(cc1OC)CN(CCNC(=O)c1ccc(-c3ccc4ncnc(Nc5cccc(C#N)c5)c4c3)cc1)CC2 | 2.5 | 
COc1cc2c(cc1OC)CN(CCNC(=O)c1ccc(-c3ccc4ncnc(Nc5cccc(C)c5)c4c3)cc1)CC2 | 24.3 | 
COc1ccccc1Nc1ncnc2ccc(-c3ccc(C(=O)NCCN4CCc5cc(OC)c(OC)cc5C4)cc3)cc12 | 83.4 | inhibition (INH) [2]: Active; Activity (MCF7/ADM [3]): inactive; Activity (MCF7/ADM [4]): Dose-Dependent Effect; inhibition (MCF7/ADM [5]): Active; inhibition (MCF7/ADM [6]): Active; inhibition (MCF7/ADM [7]): Active; Activity (MCF7/ADM [8]): Active; Activity (MCF7/ADM [9]): Active; inhibition in vivo at 2 mg/kg [10]: 69.7%; Activity (MCF7/ADM [11]): Active; Activity (MCF7/ADM [12]): Active; Activity [13]: Non-Toxic; Activity [14]: Non-Toxic
COc1cc2c(cc1OC)CN(CCc1ccc(NC(=O)c3cc(OC)c(OC)cc3NC(=O)c3cnc4ccccc4c3)cc1)CC2 [TARIQUIDAR] | 11 | inhibition (INH) [2]: Active; inhibition (MCF7/ADM [6]): Active; inhibition (MCF7/ADM [7]): Active; Activity (MCF7/ADM [8]): Active; Activity (MCF7/ADM [9]): Active; inhibition in vivo at 2 mg/kg [10]: 49.4%; Activity [13]: Non-Toxic; Activity [14]: Non-Toxic
COc1cc2c(cc1OC)CN(CCNC(=O)c1ccc(-c3ccc4ncnc(NCc5cccc(Cl)c5)c4c3)cc1)CC2 | 1.5 | 
COc1cc2c(cc1OC)CN(CCNC(=O)c1ccc(-c3ccc4ncnc(Nc5cccc(Cl)c5)c4c3)cc1)CC2 | 11.6 | 
COc1cc2c(cc1OC)CN(CCNC(=O)c1ccc(-c3ccc4ncnc(NCc5cccc(Br)c5)c4c3)cc1)CC2 | 1.2 | 
COc1cc2c(cc1OC)CN(CCNC(=O)c1ccc(-c3ccc4ncnc(Nc5ccc(Br)cc5)c4c3)cc1)CC2 | 16.3 | 
COc1cccc2c1C(=O)c1c(O)c3c(c(O)c1C2=O)C[C@@](O)(C(=O)CO)C[C@@H]3O[C@H]1C[C@H](N)[C@H](O)[C@H](C)O1.Cl [DOXORUBICIN HYDROCHLORIDE] |  | Activity [15]: Non-Toxic; Activity [16]: Non-Toxic
COc1cc2c(cc1OC)CN(CCNC(=O)c1ccc(-c3ccc4ncnc(Nc5ccccc5Br)c4c3)cc1)CC2 | 16.6 | 
COc1cc2c(cc1OC)CN(CCNC(=O)c1ccc(-c3ccc4ncnc(Nc5ccccc5F)c4c3)cc1)CC2 | 2.4 | 
COc1cc2c(cc1OC)CN(CCNC(=O)c1ccc(-c3ccc4ncnc(Nc5cccc(Br)c5)c4c3)cc1)CC2 | 3.4 | 
COc1cc2c(cc1OC)CN(CCNC(=O)c1ccc(-c3ccc4ncnc(NCc5ccc(Cl)cc5)c4c3)cc1)CC2 | 9.3 | 
COC(=O)c1ccc(Nc2ncnc3ccc(-c4ccc(C(=O)NCCN5CCc6cc(OC)c(OC)cc6C5)cc4)cc23)cc1 | 10.1 | 
COc1ccc(Nc2ncnc3ccc(-c4ccc(C(=O)NCCN5CCc6cc(OC)c(OC)cc6C5)cc4)cc23)cc1F | 25.2 | 
COc1cc2c(cc1OC)CN(CCNC(=O)c1ccc(-c3ccc4ncnc(NCc5ccccc5)c4c3)cc1)CC2 | 3.3 | 
COC(=O)c1cccc(Nc2ncnc3ccc(-c4ccc(C(=O)NCCN5CCc6cc(OC)c(OC)cc6C5)cc4)cc23)c1 | 2.4 | 
COc1cc2c(cc1OC)CN(CCNC(=O)c1ccc(-c3ccc4ncnc(Nc5ccc(F)cc5)c4c3)cc1)CC2 | 14.1 | 
COc1cc2c(cc1OC)CN(CCNC(=O)c1ccc(-c3ccc4ncnc(Nc5cccc(F)c5)c4c3)cc1)CC2 | 5.3 | 
COc1cc2c(cc1OC)CN(CCNC(=O)c1ccc(-c3ccc4ncnc(NCc5cccc(F)c5)c4c3)cc1)CC2 | 22.2 | 
COc1cc2c(cc1OC)CN(CCNC(=O)c1ccc(-c3ccc4ncnc(Nc5ccccc5C)c4c3)cc1)CC2 | 41.3 | 
COc1cccc(Nc2ncnc3ccc(-c4ccc(C(=O)NCCN5CCc6cc(OC)c(OC)cc6C5)cc4)cc23)c1 | 1.3 | 
COc1cc2c(cc1OC)CN(CCNC(=O)c1ccc(-c3ccc4ncnc(NCc5ccccc5F)c4c3)cc1)CC2 | 7.2 | 
COc1cc2c(cc1OC)CN(CCNC(=O)c1ccc(-c3ccc4ncnc(Nc5ccc(C)cc5)c4c3)cc1)CC2 | 3.1 | 
